{
  "source": "patent US5258385A",
  "about": "“β-Carboline-derived compounds, lamchart benzodiazepine-receptor ligands, having an inverse agonist and antagonist effect on benzodiazepines, and drugs containing them” (Centre National de la Recherche Scientifique (CNRS), priority 1991, dated 1993)",
  "key": {"[1]": {"details": "anxiolytic, anti-convulsant and the like; cited from earlier work"}, "[2]": {"biological_target": "central receptors for benzodiazepines", "details": "in vitro, rat brain; read-out: IC50 binding to central receptors for benzodiazepines; cited from earlier work"}, "[3]": {"test_system": "convulsions caused by other agents such as pentylenetetrazole", "details": "cited from earlier work"}, "benzodiazepine receptor [4]": {"test_system": "benzodiazepine receptor", "experiment": "In vivo behavior and antagonism of diazepam sedation in mice", "details": "sc", "experimental": "The antagonist properties of the lactone were also assessed in vivo in mice."}, "benzodiazepine receptor [5]": {"test_system": "benzodiazepine receptor", "experiment": "Effect on current in xenopus oocyte expressing the benzodiazepine receptor (mRNA)", "type": "cell-based", "from_the_text": "The effect of the lactone on the benzodiazepine receptor expressed was first expressed, using the corresponding messenger RNA, in xenopus oocyte."}, "benzodiazepine receptor [6]": {"test_system": "benzodiazepine receptor", "experiment": "In vitro binding to benzodiazepine receptor, displacement of 3H-flunitrazepam, rat brain cortical membranes"}, "[7]": {"test_system": "learning and information retention", "details": "man; cited from earlier work"}, "learning and memory": {"test_system": "learning and memory", "details": "cited from earlier work"}},
  "data": [
    {"smiles": "CCOC(=O)c1ncc2[nH]c3cccc(OCc4ccccc4)c3c2c1COC", "note": "[ZK 91296]", "values": [
      {"measurement": "properties in vivo compared with diazepam", "setting": "[1]", "value": "properties similar to those of diazepam in vivo"}
    ]},
    {"smiles": "CCOC(=O)c1cc2c(cn1)[nH]c1ccccc12", "note": "[β-CCE, ethyl ester of β-carboline-3-carboxylic acid]", "values": [
      {"measurement": "IC50", "setting": "[2]", "value": 4, "unit": "nM"},
      {"measurement": "in vivo pharmacological effects compared with benzodiazepines", "setting": "[3]; in vivo", "value": "opposed to those of benzodiazepines"},
      {"measurement": "proconvulsant effect", "setting": "[3]; mice", "value": "proconvulsant in mice which facilitates the convulsions caused by other agents such as pentylenetetrazole"}
    ]},
    {"smiles": "CCOC(=O)c1ncc2[nH]c3ccc(OCc4ccccc4)cc3c2c1COC", "note": "[ZK 93423]", "values": [
      {"measurement": "properties in vivo compared with diazepam", "setting": "[1]", "value": "properties similar to those of diazepam in vivo"}
    ]},
    {"smiles": "O=C1OC(CO)c2c1ncc1[nH]c3ccccc3c21", "note": "(stereo not drawn) [Compound No. 3, 10-Hydroxymethylbutanolide[2.3-]-β-Carboline]", "values": [
      {"measurement": "convulsant or sedative effect in mice", "setting": "benzodiazepine receptor [4]; 5 mg/kg", "value": "neither convulsant nor sedative"},
      {"measurement": "effect on behavior of mice", "setting": "benzodiazepine receptor [4]; 5 mg/kg", "value": "produces no effect on their behavior"},
      {"measurement": "antagonism of sedation caused by diazepam", "setting": "benzodiazepine receptor [4]; compound 5 or 10 mg/kg, diazepam 7.5 mg/kg", "value": "completely avoided"},
      {"measurement": "effect on GABA-generated current in oocyte", "setting": "benzodiazepine receptor [5]; lactone (10^6 M [sic]) simultaneously with 10^5 M (so in the source) GABA", "value": "no increase or decrease was observed in the current"},
      {"measurement": "inhibition of the increase in current generated by diazepam", "setting": "benzodiazepine receptor [5]; lactone (10^6 M [sic]), diazepam (10^6 M [sic])", "value": "inhibits substantially the increase in the current"},
      {"measurement": "receptor profile in oocyte test", "setting": "benzodiazepine receptor [5]; with GABA", "value": "behaves, in this test, like an antagonist of the benzodiazepine receptor"},
      {"measurement": "affinity relative to diazepam (20 nM)", "setting": "benzodiazepine receptor [6]; times higher than diazepam", "value": 100, "unit": "times"},
      {"measurement": "affinity relative to β-CCE (4 nM)", "setting": "benzodiazepine receptor [6]; times higher than β-CCE", "value": 20, "unit": "times"}
    ]},
    {"smiles": "CCOC(=O)c1ncc2[nH]c3cccc(OC(C)C)c3c2c1C", "note": "[ZK 93426]", "values": [
      {"measurement": "learning and information retention", "setting": "[7]", "value": "improve learning and information retention in man"}
    ]},
    {"smiles": "COC(=O)c1cc2c(cn1)[nH]c1ccccc12", "note": "[β-CCM]", "values": [
      {"measurement": "effect on learning and memory", "setting": "learning and memory; in vivo", "value": "positive effect on learning and memory"},
      {"measurement": "convulsant activity", "setting": "learning and memory; prevented testing in man", "value": "highly convulsant activity"}
    ]}
  ]
}
